Measurements reported in paper PMC8873228, “In-depth comparison of the metabolic and pharmacokinetic behaviour of the structurally related synthetic cannabinoids AMB-FUBINACA and AMB-CHMICA in rats” (Communications Biology, 2022).
“Also recorded” adds a separate entry of the source. Like-named read-outs stand apart in the source and are kept apart here.

What was measured:
[1] = Quantification of parent compounds and O-demethyl metabolites in rat brain, liver, kidney, serum and urine by UHPLC-HRMS after intraperitoneal injection; format: in vivo, male Sprague-Dawley rats; details: 1 mg/kg i.p.; for concentration at 30 min: 30 min after injection
Experimental: 8 male Sprague-Dawley rats (8 weeks old, weighing between 385 and 425 g) were used as animal models (Janvier Labs, Le Genest-Saint-Isle, France). Animals were housed individually in polypropylene plastic cages under controlled temperature (24 ± 2 °C) and lighting conditions (12 h:12 h; lights ON at 8 AM), with ad libitum access to food and water. Before SCRA injection, animals were handled and habituated to the experimental room for 1 week. All the experiments were approved by the Committee of Ethics and Animal Experimentation of Universitat Jaume I (2019/VSC/PEA/048) and treated throughout according to the European Union Council Directive of June 3rd, 2010 (6106/1/10 REV1).
SCRAs were dosed intraperitoneally at 1 mg/kg. This dose was selected based on similar studies reported in literature. The solution used for injection was prepared at 1 mg/mL in physiological saline solution containing 5% ethanol. Between 385 and 425 µL of that solution were injected depending on animal weight. Blood (serum), liver, brain, and kidney samples were dissected 15, 30, and 180 min after injection (previously anesthetised with CO2 and decapitated immediately). Blood was collected mainly from carotid arteries and jugular veins and kept at room temperature for 30 min to elicit coagulation. Then, blood was centrifuged 10 min at 2000 rcf at 4 °C in order to separate serum from sedimented clot. Liver, kidney, and brain were rapidly dissected and snap-freezing in liquid nitrogen. One animal was used for each dissection time. Additional serum, liver, brain, and kidney samples were obtained from an animal 48 h after being SCRA-dosed, and used as control. Urine samples were collected at 30, 60, 90, 120, 180, 240, 300, and 360 min, together with an additional sample at 24 h (composite urine sample between 360 min and 24 h, collected from animal dissected at 48 h). Urine samples were obtained from the bottom of the cage at the indicated time. Additionally, urine sample collected from one of the animals prior to injection was used as control. Samples were snap-frozen in liquid nitrogen after collection, and preserved at −23 °C until analysis.
Solid samples (brain, liver, and kidney) were crushed with dry ice using an electric grinder. 0.1 g were accurately weighed (±0.1 mg) in 1.5 mL polypropylene tubes, and 0.3 mL of acetonitrile acidified with 1% of formic acid were added for extraction. After that, samples were sonicated for 5 min, followed by 30 min of vortex agitation. Samples were then frozen for 30 min in order to increase protein removal. Finally, they were centrifuged at 12,500 rfc during 15 min, and the supernatant was 10-fold diluted with ultrapure water for UHPLC-HRMS analysis.
Similarly to solid samples, samples were frozen for 30 min, centrifuged at 12,500 rfc for 15 min, and the supernatant 10-fold diluted with ultrapure water for UHPLC-HRMS analysis.
For parent compounds and O-demethyl metabolites estimated quantification, a calibration line in solvent from 2.5 to 250 ng/mL was included in each batch analysis, as well as different quality control samples (QCs) prepared with blank extracts and spiked at 200 ng/mL for evaluating matrix effect and apply a correction factor.
Samples were analysed using an Acquity ultra-performance liquid chromatography (UPLC) system (Waters Corp, Mildford, MA, USA) coupled to a Xevo G2 QTOF (Waters Corp, Manchester, UK) mass spectrometer with quadrupole time-of-flight (QTOF) hybrid mass analyser.
Chromatographic separation was performed using a Cortecs T3 100 ×2.1 mm, 1.6 µm particle size analytical column (Waters Corp, Wexford, Ireland), maintained at 40 °C. […] Injection volume was 50 µL.

pooled human hepatocytes = details: AMB-FUBINACA incubated with pooled human hepatocytes; cited from earlier work
[2] = 15 min after injection, one sample, estimated concentration, 1 mg/kg
[3] = male, Sprague-Dawley, brain, ip, 1 mg/kg, 15 min after injection, one sample, estimated concentration, read-out: Brain concentration
[4] = male, Sprague-Dawley, brain, ip, 1 mg/kg, one sample, estimated concentration, read-out: Brain concentration
[5] = male, Sprague-Dawley, brain/serum, ip, read-out: Brain/serum ratio, tissue (ng/g)/serum (ng/mL)
[6] = male, Sprague-Dawley, kidney, ip, 1 mg/kg, 15 min after injection, one sample, estimated concentration, read-out: Kidney concentration
[7] = male, Sprague-Dawley, kidney, ip, 1 mg/kg, one sample, estimated concentration, read-out: Kidney concentration
[8] = male, Sprague-Dawley, kidney/serum, ip, read-out: Kidney/serum ratio, tissue (ng/g)/serum (ng/mL)
[9] = male, Sprague-Dawley, liver, ip, 1 mg/kg, 15 min after injection, one sample, estimated concentration, read-out: Liver concentration
[10] = male, Sprague-Dawley, liver, ip, 1 mg/kg, one sample, estimated concentration, read-out: Liver concentration
[11] = male, Sprague-Dawley, liver, ip, 1 mg/kg, 180 min after injection, one sample, estimated concentration, read-out: Liver concentration
[12] = male, Sprague-Dawley, liver/serum, ip, read-out: Liver/serum ratio, tissue (ng/g)/serum (ng/mL)
[13] = male, Sprague-Dawley, liver/serum, ip, 180 min, read-out: Liver/serum ratio, tissue (ng/g)/serum (ng/mL)
[14] = male, Sprague-Dawley, serum, ip, 1 mg/kg, 15 min after injection, one sample, estimated concentration, read-out: Serum concentration
[15] = male, Sprague-Dawley, serum, ip, 1 mg/kg, one sample, estimated concentration, read-out: Serum concentration
[16] = male, Sprague-Dawley, serum, ip, 1 mg/kg, 180 min after injection, one sample, estimated concentration, read-out: Serum concentration
[17] = male, Sprague-Dawley, kidney, ip, 1 mg/kg, 180 min after injection, one sample, estimated concentration, read-out: Kidney concentration
[18] = 48 h after injection, one sample, estimated concentration, 1 mg/kg

Structure (SMILES)	Brain concentration [1, 2]	concentration at 15 min [1, 3]	concentration at 30 min [1, 4]	Kp at 15 min [1, 5]	Kp at 30 min [1, 5]	concentration at 15 min [1, 6]	concentration at 30 min [1, 7]	Kp at 15 min [1, 8]	Kp at 30 min [1, 8]	concentration at 15 min [1, 9]	concentration at 30 min [1, 10]	concentration at 180 min [1, 11]	Kp at 15 min [1, 12]	Kp at 30 min [1, 12]	Kp at 180 min [1, 13]	concentration at 15 min [1, 14]	concentration at 30 min [1, 15]	concentration at 180 min [1, 16]	Liver concentration [1, 2]	concentration at 180 min [1, 17]	also measured
COC(=O)C(NC(=O)c1cn(CC2CCCCC2)c2ccccc12)C(C)C (stereo not drawn) [AMB-CHMICA]	21.3 ng/g	21 ng/g	20.7 ng/g	0.47	0.31	36.5 ng/g	66 ng/g	0.81	1	846 ng/g	874 ng/g	< 5 ng/g	18.8	13.3	1.18	0.0451 µg/mL	0.0659 µg/mL	0.00393 µg/mL			Liver concentration ([1]; 180 min after injection, one sample, estimated concentration, 1 mg/kg): 4.64 ng/g
COC(=O)C(NC(=O)c1nn(Cc2ccc(F)cc2)c2ccccc12)C(C)C (stereo not drawn) [AMB-FUBINACA]	57.2 ng/g	57 ng/g	18.4 ng/g	4.38	6.05	42.6 ng/g	16.4 ng/g	3.27	5.42	7 ng/g	4.59 ng/g		0.56	1.52		0.013 µg/mL	0.00303 µg/mL		7.25 ng/g	3.36 ng/g	Liver concentration ([1]; 180 min after injection, one sample, estimated concentration): no longer detected; Blood-brain barrier permeability compared by brain/serum concentration ratio ([1]; at measured time points, versus AMB-CHMICA, 1 mg/kg): higher permeability than AMB-CHMICA (up to ten times); also recorded: around ten-fold more permeable than AMB-CHMICA; concentration at 180 min ([1]; male, Sprague-Dawley, brain, ip, 1 mg/kg, 180 min after injection, one sample, estimated concentration, read-out: Brain concentration): 2.64 ng/g
CC(C)C(NC(=O)c1nn(Cc2ccc(F)cc2)c2ccccc12)C(=O)O (stereo not drawn) [O-demethyl AMB-FUBINACA]			3.83 ng/g		0.05	12.5 ng/g	27.4 ng/g	0.5	0.36	110 ng/g	356 ng/g	265 ng/g	4.47	4.63	1.94	0.025 µg/mL	0.0768 µg/mL	0.136 µg/mL	111 ng/g	43.7 ng/g	Incubation time after which the O-demethyl metabolite was the major compound in incubation media (pooled human hepatocytes): 2 to 3 min; Serum concentration [1, 2]: 0.0249 µg/mL; Urine concentration ([1]; 24 h (composite urine 360 min to 24 h)): 7.33 ng/mL; Liver concentration [1, 18]: 31.49 ng/g; Serum concentration [1, 18]: 0.00572 µg/mL; Kp at 180 min ([1]; male, Sprague-Dawley, kidney/serum, ip, 180 min, read-out: Kidney/serum ratio, tissue (ng/g)/serum (ng/mL)): 0.32; concentration at 48 h ([1]; male, Sprague-Dawley, liver, ip, 1 mg/kg, 48 h after injection, one sample, estimated concentration, read-out: Liver concentration): 31 ng/g; concentration at 48 h ([1]; male, Sprague-Dawley, serum, ip, 1 mg/kg, 48 h after injection, one sample, estimated concentration, read-out: Serum concentration): 0.006 µg/mL; concentration at 180 min ([1]; male, Sprague-Dawley, urine, ip, 1 mg/kg, 180 min, read-out: Urine concentration): 0.00578 µg/mL; concentration at 300 min ([1]; male, Sprague-Dawley, urine, ip, 1 mg/kg, 300 min): 0.00113 µg/mL
